Measurements reported in patent publication US20170051149A1, “AZOARYLS AS REVERSIBLY MODULATABLE TUBULIN INHIBITORS” (ECOLE NORMALE SUPERIEURE DE LYON, priority 2014, published 2017).

Experiments:
Type in all cases: physicochemical
[1] = UV-Vis absorption spectra of trans and cis isomers (λstrong, εE, λiso); conditions: PBS pH = 7.4, 20% MeCN
Description: A(λmeas, λirrad) is used to indicate the measured UV-Vis absorption spectrum in the range 340 nm<λmeas<650 nm, as a function of the irradiating wavelength λirrad once PSS(λirrad) has been established. UV-Vis measurement of A(λmeas, λirrad) was performed. It was considered that the PSS had been established when the absorbance profile ceased to alter under continued irradiation. An isosbestic point (wavelength λiso) was found for each compound by examining where the absorption A(λmeas) was invariant with respect to changing λirrad. A(λmeas, dark) was also acquired with samples that had been kept in the dark for at least several hours, and it was assumed that no significant spectral contribution from the cis isomer was present in these spectra. […]
HPLC (high-performance liquid chromatography) was then used as described in Part A to measure ε*E(λ) and ε*Z(λ) (the separated absorption profiles of trans and cis isomers respectively, in arbitrary units which are not intercomparable in an absolute sense). It was approximated that these spectra would be identical in shape if measured under the UV-Vis conditions, so once ε*E(λ) and ε*Z(λ) were scaled appropriately relative to each other, these scaled spectra could be used to deconvolute A(λmeas, λirrad). This approximation was considered useful especially in the regions of greatest spectral interest, ie. regions of relatively strong absorption (since only rather well-absorbed wavelengths will allow significant photoisomerisation under finite photon flux). To place the arbitrary-unit absorption spectra on an absolute scale, the maximal absorption wavelength λstrong of the trans-isomer was first selected by examining A(λmeas, dark): typically, λstrong≈380 nm. with Expressing A(λstrong, dark) in units M^−1cm^−1, ε*E(λstrong) was then scaled so that εE(λstrong)=A(λstrong, dark), giving:
εE(λ)=ε*E(λ)×[A(λstrong,dark)/ε*E(λstrong)]
and the isosbestic point was used to scale the cis-isomer spectrum as per:
εZ(λ)=ε*Z(λ)×[εE(λiso)/ε*Z(λiso)]
However, using A(λstrong, dark) was preferred, since A(λiso) was typically so much smaller that the standard deviation in the scaled absorptivities which it generated was far greater.
Absorption spectra in cuvette (“UV-Vis”) were acquired on a Varian CaryScan 50 (1 cm, 100 μL or 1 mL volume) with Peltier cell temperature control unit maintained at 37° C., in PBS at pH˜7.4 containing a low percentage of cosolvent if needed (typically 2% MeCN or 5% DMSO). A ThorLabs Polychrome V monochromator with a fibre optic cable output directed into the cuvette was used to perform photoisomerisation studies by UV-Vis spectrophotometry although single LEDs of approximately 10-20 mW output, 15-20° cone angle, and 10-15 nm bandwidth FWHM, obtained commercially from Roithner Lasertechnik GmbH, were equally successful in providing repeatable monochromatic photoisomerisation. Separated spectra of trans and […] forms were acquired from the inline Diode Array Detector on the AGILENT 1260 SL coupled LC-MS system after HPLC separation. Fluorescence spectrophotometry (excitation and emission spectra) were acquired on a Varian CaryEclipse fluorescence spectrophotometer.
By the above procedure, the trans- and cis-isomers of each species were separated by HPLC as described in Part A, and ε*E(λ) and ε*Z(λ) were measured on the inline ultraviolet/visible Diode Array Detector; these were then scaled as outlined above. The parameters λstrong, εE(λstrong) and λiso are tabulated for selected compounds below (Table 1).

[2] = thermal reversion halflife of spontaneous cis->trans isomerisation; conditions: PBS pH = 7.4, 20% MeCN
Excerpt: Finally, trends in τ were ascertained by establishing the PSS at λstrong, then turning off the light source at time t0, and measuring A(λstrong, t) over time. Data were acquired for half an hour, or else the first three halflives (whichever was the shorter period), then fitted to the equation:
A(λstrong,t)=A(λstrong,dark)−[A(λstrong,dark)−A(λstrong,t0)]×e^−kt
This fit was used to return an in vitro halflife τ* for the cis->trans spontaneous thermal reversion isomerisation process, defined as τ=ln 2/k. It should be noted however, that azoaryl compounds' thermal reversion rates are known to depend strongly upon their microenvironment, such as pH and solvent/solvation effects^[7,38]. This was shown for compound (I.1), where a change of only 1.4 pH units gave a 25% change in τ*; note that different compounds are expected to respond very differently to changes in pH so no unifying trends are expected. Therefore the τ* acquired in vitro were considered appropriate only for qualitative intercomparison between samples (trend of τ* vs structure), rather than quantitative prediction of the τ values which might be experienced in cellulo or in vivo. Indeed, these in vitro τ* values appeared at least three times longer than what would have been expected based on in cellulo experiments where the pause time between activating pulses was varied.
Thermal reversion times were measured as described above. Those for selected compounds are presented below (Table 2).

[3] = photoisomerisation: photostationary state, calculated φ(λ) and E(λ), reversible cycling; conditions: irradiation at 390 nm
Description: In a simple analysis of the PSS(λ) and E(λ), it was approximated that ΦEZ and ΦZE (the quantum efficiencies of the photoisomerisations trans->cis and cis->trans, respectively) are equal and independent of wavelength, and also that the kinetics of spontaneous reversion could be ignored (eg. high-intensity light source). A function φ(λ) was then calculated as per: […]
If ΦEZ and ΦZE are equal and independent of wavelength, φ(λ) gives the true PSS(λ). The wavelength independence of ΦEZ and ΦZE may be an acceptable approximation in regions of relatively strong absorption within the visible spectrum. Their equality may also be an acceptable assumption: since if ΦEZ and ΦZE are unequal but only depend weakly on wavelength in regions of relatively strong absorption, then φ(λ) is a transform of the true PSS(λ); this transform preserves the features of PSS(λ) which were most desired for evaluation in this study as long as ΦEZ and ΦZE are not too different (eg less than a factor of ten difference). Indeed, the calculated φ(λ) were later confirmed by in cellulo experiments to give reliable indications of favourable wavelengths for bulk trans->cis and bulk cis->trans photoisomerisation, which is the benchmark for a suitable analysis of the PSS(λ). The advantages of calculating φ(λ) rather than exhaustively measuring the PSS(λ) experimentally are that (a) the throughput is much faster, (b) the true PSS(λ) may be difficult to achieve at weakly-absorbing wavelengths or with fast-relaxing compounds, (c) the true PSS(λ) may be difficult to measure accurately at wavelengths where one isomer strongly dominates the sample even if both are relatively strongly absorbing, and (d) the variation of PSS(λ) with changes in the local biological microenvironment (polarity, pH etc) may anyway be larger than the error incurred by the assumption φ(λ)═PSS(λ).
Also following the assumption that ΦEZ and ΦZE are equal and independent of wavelength, a photoisomerisation efficiency E(λ) was calculated as per:
E(λ)=[εE(λ)+εZ(λ)]/[εE(390)+εZ(390)]
Larger values of E(λ) therefore denote higher efficiency photoisomerisation (less photon flux is required to approach the PSS(λ)). E(λ) was parametrised to the absorption coefficients at 390 nm, since typically that wavelength gave satisfactorily strong absorption and efficient photoisomerisation. It should be noted that E(λ) are not intercomparable between different compounds. This reflects the realistic scenario that the ΦEZ (or the ΦZE) of two arbitrarily chosen compounds may differ by a significant amount, even if the approximation that ΦEZ and ΦZE are equal and independent of wavelength applies independently to each compound.
A(λstrong) was measured over time in the UV-Vis cuvette in non-degassed PBS left open to the atmosphere, […], at 37° C., while the monochromator was used to apply λirrad alternating between two values λ1 and λ2, chosen to induce net trans->cis and net cis->trans isomerisation respectively. Typical results are presented for compound I.1 (FIG. 3). The absorbance of I.1 (18 μM) was measured at λstrong=378 nm, while the irradiating wavelength was held alternately at λ1=388 nm (50 s; bulk trans->cis) then λ2=508 nm (180 s, bulk cis->trans). Higher absorbance corresponds to a greater amount of trans isomer: an absorbance of 0.27 here corresponds to an approximately 5:1 ratio of trans:cis isomer in the sample, and an absorbance of 0.12 here corresponds to an approximately 1:2 ratio of trans:cis isomer in the sample. […] Typically, compounds of the invention could be bulk-photoisomerised hundreds of times over a timescale of hours (50 representative cycles are shown in FIG. 3 for I.1), such that the majority species in a sample was photocontrollably alternated between the trans-isomer and the cis-isomer. […]

Structure (SMILES) | εE(λstrong) [1] [M⁻¹ cm⁻¹] | λstrong [1] [nm] | τ, reversion time [2] | change in absorbance spectrum upon irradiation [3]
COc1ccc(N=Nc2cc(OC)c(OC)c(OC)c2)c(O)c1 [I.8, 5-methoxy-2-((3,4,5-trimethoxyphenyl)diazenyl)phenol] | 14900 | 390 | TOO FAST | no measurable change in absorbance spectrum
COc1ccc(N=Nc2cc(OC)c(OC)c(OC)c2)c(N)c1 [I.16, 5-methoxy-2-((3,4,5-trimethoxyphenyl)diazenyl)aniline] | 14430 | 410 | TOO FAST | no measurable change in absorbance spectrum
COc1ccc(N=Nc2cc(OC)c(OC)c(OC)c2)c(O)c1C [I.17, 3-methoxy-2-methyl-6-((3,4,5-trimethoxyphenyl)diazenyl)phenol] | 10872 | 385 | TOO FAST | no measurable change in absorbance spectrum
